Laboratory results: US20170216421A1, “MANUFACTURING OF MULTI-DOSE INJECTION READY DENDRITIC CELL VACCINES, COMBINATION THERAPIES FOR BLOCKING HER2 AND HER3, AND ESTROGEN RECEPTOR POSITIVE HER2 BREAST RECEPTOR POSITIVE HER2 BREAST CANCER THERAPY” (THE TRUSTEES OF THE UNIVERSITY OF PENNSYLVANIA, priority 2015, published 2017)

How the values were obtained:
[1] = tested on: MCF7 (HER2^neg 2+/ER^pos); experiment: Alamar Blue metabolic activity assay; assay type: cell-based, human; conditions: 72 hours
Experimental: (§1) Breast cancer cell lines, SKBR3 (HER2^pos/ER^neg) and MCF7 (HER2^neg 2+/ER^pos), were treated with Th1 cytokines (IFNγ and TNFα), a tamoxifen metabolite (4-hydroxytamoxifen, “4HT”), or both for 72 hours. Metabolic activity was measured via Alamar Blue assay.

SKBR3 (HER2^pos/ER^neg) = experiment: Alamar Blue metabolic activity assay; assay type: cell-based, human; conditions: 72 hours
Experimental: as §1

[2] = tested on: BRAF^V600EPTEN^−/− melanoma; experiment: Transplantable melanoma model: tumor growth and survival; assay type: in vivo, mice; conditions: administered alone
Experimental: A transplantable BRAF^V600EPTEN^−/− melanoma model was developed in the C57Bl/6 background. DC1 were generated from bone marrow precursors using Flt3, IL-6, GM-CSF, IL-4, CpG and LPS, and pulsed with class I BRAF^V600E peptide. In addition to untreated and ovalbumin-DC1 controls, BRAF^V600E-DC1 (2× weekly injections) and PLX were administered alone or in designated combinations to tumor-bearing mice (n=10 each). Tumor growth and survival were determined.

| Compound | anti-tumor activity / metabolic activity [1] | anti-tumor activity / metabolic activity (SKBR3 (HER2^pos/ER^neg)) | median survival [2] |
| --- | --- | --- | --- |
| 4-hydroxytamoxifen [4HT] | did not increase anti-tumor activity | not in response to anti-estrogen treatment |  |
| CCCS(=O)(=O)Nc1ccc(F)c(C(=O)c2c[nH]c3ncc(-c4ccc(Cl)cc4)cc23)c1F [PLX, vemurafenib] |  |  | 43.5 days |
